Experiment: Pharmacokinetic test in rats (IV and PO)
Format: in vivo, male SD rats
Experimental: This experiment includes the PO group and IV group, with three animals in each group. For the PO group, about 0.25 mL of whole blood was collected from orbital venous plexus before administration, and 15 min, 30 min, 1 h, 2 h, 4 h, 7 h and 24 h after administration, and for the IV group, about 0.25 mL of whole blood was collected from orbital venous plexus before administration, and 5 min, 15 min, 30 min, 1 h, 2 h, 4 h, 7 h and 24 h after administration, which were placed in heparin anticoagulant tube. After the blood collection, the blood collection tubes containing anticoagulant agent was inverted several times to fully mix, and placed on wet ice before centrifugation. Within 60 minutes after blood collection, it was centrifuged at 8000 rpm under 2 to 8° C. for 10 minutes to separate red blood cells and obtain plasma samples. The plasma sample was transferred to a cryogenic tube and stored at −75±15° C. until analysis. 50 μL of the plasma sample was taken and added with 5 μL of acetonitrile:water (1:1, v/v), and added with 200 μL of 0.1% formic acid-acetonitrile, centrifuged (12000 rpm, 15 min); the supernatant was diluted in 1:1 with ultrapure water. The plasma drug concentration was analyzed by using LC-MS/MS method. Microsoft EXCEL was used to statistically describe the experimental data with mean, deviation % and standard deviation (SD). The pharmacokinetic parameters were calculated with WinNonlin 8.1 software. The following pharmacokinetic parameters were calculated: CL (clearance), Vd (apparent volume of distribution), T1/2 (elimination half-life time), Cmax (peak concentration), Tmax (peak time), AUC (area under the blood concentration-time curve), and F % (bioavailability).

[1] = male, SD, rat, IV 1 mg/kg, single, plasma
[2] = male, SD, rat, PO 10 mg/kg, single, plasma

SMILES: CC(C)C[C@H](NC(=O)Cn1nc(-c2cccc(OCCN3CCN(c4ccccc4)CC3)c2)cc1-c1ccccc1)B(O)O.Cl [Compound 39, (R)-(3-methyl-1-(2-(5-phenyl-3-(3-(2-(4-phenylpiperazin-1-yl)ethoxy)phenyl)-1H-pyrazol-1-yl)acetamido)butyl)boronic acid hydrochloride]
- clearance (in words) (IV 1 mg/kg): medium clearance
- CL_obs (IV 1 mg/kg, single, plasma, hydrochloride, 1 mg/kg): 21.0 ± 3.4 mL/min/kg
- distribution in vivo (in words) (IV 1 mg/kg, Vd higher than total liquid volume of SD rats): widely distributed in vivo
- absorption (in words) (PO 10 mg/kg): rapid absorption
- bioavailability (male, SD, rat, plasma, PO 10 mg/kg vs IV 1 mg/kg, read-out: F (bioavailability)): 2.42 ± 1.91%
- AUC(0-inf) [1]: 807 ± 123 ng·h/mL
- AUC(0-t) [1]: 767 ± 117 ng·h/mL
- C0 [1]: 846 ± 183 ng/mL
- Cmax [1]: 671 ± 124 ng/mL
- Tmax [1]: 4.98 min
- Vd [1]: 13.9 ± 2.8 L/kg
- half-life [1]: 458 ± 18 min
- AUC(0-inf) [2]: 191 ± 147 ng·h/mL
- AUC(0-t) [2]: 186 ± 147 ng·h/mL
- Cmax [2]: 74.8 ± 82 ng/mL
- Tmax [2]: 19.8 ± 8.4 min
- half-life [2]: 97.8 ± 21.6 min

From US12473305B2, “Pyrazole boronic acid compound, pharmaceutical composition containing same, and uses thereof” (BEIJING SONGRUN PHARMACEUTICAL TECHNOLOGY CO., LTD., priority 2020, dated 2025)
